In publication PMC6609034, “Unraveling the role of the secretor antigen in human rotavirus attachment to histo-blood group antigens” (PLoS Pathogens, 2019):

Assays:
Set-up in all cases: species or system human rotavirus
[1] = test system: P[8]c VP8* mutant E212A (M3); test: SPR binding of VP8* mutant
Source text: (§1) Selected residues in the GST::VP8* P[8] were replaced for alanine or valine according to the structural data of the LNB binding site. Four mutants (M1–M4) were constructed using a Quick-Change site-directed mutagenesis kit (Stratagene) and appropriate oligonucleotides (S5 Table), and the DNA changes were confirmed by DNA sequencing. Mutant M1, M2 and M3 contained changes in the codons for tryptophan 174, arginine 209 and glutamic 212 residues, respectively, that introduced an alanine at each position. Mutant M4 substituted isoleucine 173 by valine.
(§2) The affinity assays were based on SPR and performed in a Biacore T100 instrument (GE Healthcare). H1 PAA-biotin and LNB PAA-biotin were diluted to a concentration of 1 mg/ml in water and captured with streptavidin present in a SA sensor chip (GE Healthcare). H1 was immobilized in channel 2 (630 RU) of the sensor chip and LNB was immobilized in channel 4 (624 RU). The channels 1 and 3 were used as the reference surfaces for channels 2 and 4, respectively. The immobilization process was performed by conditioning the sensor chip surface with three consecutive 1-minute injections of 1 M NaCl 50 mM NaOH before biotinylated ligands were immobilized at a flow rate of 15 μl/min. The affinity assays of VP8* polypeptides to biotinylated sugars were performed at 10°C using 1X HBS-EP^+ buffer (0.01 M HEPES pH 7.4, 0.15 M NaCl, 3 mM EDTA, 0.005% Surfactant P20), a flow rate of 5 μl/min with 2700 seconds of contact time and a dissociation time of 1800 seconds. The regeneration step consisted in a wash step with 10 mM Glycine-HCl pH 2 for 20 seconds at the same flow rate. The assays were performed with purified VP8* at different concentrations (45; 137; 411; 1,234; 3,703; 11,111; 33,333; 100,000 and 200,000 nM). Each run included three blanks without sample. The affinity data were obtained after analysis of sensorgrams performed with the BIAevaluation 2.0 software (GE Healthcare). Since multivalent oligosaccharides are immobilized on a sensor chip surface, avidity and rebinding effects can take place and apparent affinity constants (Kda) are calculated with this experimental setup. Kda values were obtained from the steady-state kinetics experiment as the ligand concentration needed to achieve a half-maximum binding at equilibrium. The experiments were made in triplicate. Graphical representation of signal/concentration curves were plotted using GraphPad Prism 6 for MacOsX.

[2] = test system: P[8]c VP8* mutant W174A (M1); test: SPR binding of VP8* mutant
Source text: as §1, §2

[3] = test system: P[8]c VP8* mutant R209A (M2); test: SPR binding of VP8* mutant
Source text: as §1, §2

VP8* P[8] = test: ELISA-like binding assay to biotinylated HBGAs; settings: biotinylated PAA glycan 2 μg/ml, VP8* 10 μg/ml
Source text: A panel of biotinylated sugar antigens including Le^a, Le^b, Le^c (lacto-N-biose; LNB), H type-1, H type-2 and blood group A and B trisaccharides were purchased from Glyconz (Fig 1 and S1 Table). These glycans are biotinylated neoglyconjugates of a poly[N-(2-hydroxyethyl)acrylamide] (PAA) with a size from 30 to 50 KDa. This forms a flexible polymer ideal for a multivalent presentation of glycans. Immobilized streptavidin F96 black plates (Nunc) were coated with the biotinylated oligosaccharides (2 μg/ml) in milli-Q water and incubated during 1 hour at 37°C. After functionalization the plates were washed once with PBS containing 0.05% of Tween 20 (PBS-T) and the VP8* proteins were added (10 μg/ml) and incubated at 4°C overnight. After three washes with PBS-T, a rabbit polyclonal antibody anti GST (1:1,000) (Abcam) was added and the plates were incubated one hour at 37°C. Then, the plates were washed three times with PBS-T and incubated for 1 h at 37°C with 1:10,000 dilution of horseradish peroxidase (HRP)-conjugated goat anti-rabbit (Abcam). After three washes with PBS-T, the binding was detected using QuantaBlue reagent (ThermoFisher) kit, as recommended by the manufacturer. Fluorescence units were registered by a MultiScan microplate reader. All the binding assays were performed in triplicate.

[4] = test system: Wa DLP (double-layered particles); test: ELISA-like glycan binding assay of rotavirus particles; settings: DLP 10 to 0.078 μg/ml
Source text: (§3) African green monkey kidney epithelial cells (MA104 cell line; ATTC #CRL-2378.1) were used for the propagation of rotavirus Wa strain that belongs to the globally dominant human genotype G1P[8]. Briefly, ten MA104 cells confluent 150-cm^2 flasks (approximately 1.5 ×10^7 cells/flask) were infected with Wa strain at a multiplicity of infection (MOI) of ≤ 0.1 and processed as previously described. One hundred ml of medium with 1.5x10^8 virus/ml were obtained and the viral particles were concentrated by pelleting at 160,000 × g for 1 h at 4°C in a SW 41 rotor (Beckman). The viral pellet was resuspended in TNC buffer (20 mM Tris-HCl pH 8.0, 100 mM NaCl, 1 mM CaCl2) for triple-layered particles (TLP) or in TNE (20 mM Tris-HCl, pH 8.0, 100 mM NaCl, 1 mM EDTA) for double-layered particles (DLP).
(§4) An ELISA-like binding assay was employed to determine the binding ability of rotavirus TLP and DLP to the H type-1 antigen and to its precursor LNB. Streptavidin plates were coated with the biotinylated oligosaccharides as described above. After washing with PBS-T, two fold serial dilutions of TLPs and DLP were added to the plate (ranging from 10 μg/ml to 0.078 μg/ml). The TLP were always maintained in TNC-T (20 mM Tris, 100 mM NaCl, 1 mM CaCl2, 0.05% Tween 20, pH 7,4) buffer and the binding and washing steps were always carried out in this solution. DLPs assays were carried out in Tris-buffered saline buffer with Tween 20 (TBS-T, 20 mM Tris, 100 mM NaCl, 0.05% Tween 20, pH 7.4). TLP and DLP were incubated in the plate overnight at 4°C. After binding, the plates were washed three times in TNC-T (for TLP) or TBS-T (for DLP) with 0.05% Tween 20 (TNC-T and TBS-T), and a mouse anti-VP6 antibody was added at 1:100 in TNC-T or TBS-T and incubated 1 h at 37°C. The plates were then washed three times with TNC-T or TBS-T, and a HRP-conjugated anti-mouse IgG was added at 1:10.000 and incubated at 37°C for 1 h. […] Fluorescence units were recorded by a MultiScan microplate reader.

[5] = test system: Wa TLP (triple-layered particles); test: as above; settings: TLP 10 to 0.078 μg/ml
Source text: as §3, §4

Compound | binding by SPR [1] | binding by SPR [2] | binding by SPR [3] | binding (ELISA-like) (VP8* P[8]) | binding of rotavirus particles (ELISA-like) [4] | binding of rotavirus particles (ELISA-like) [5]
CC(=O)NC1C(O)OC(CO)C(O)C1OC1OC(CO)C(O)C(O)C1OC1OC(C)C(O)C(O)C1O (stereo not drawn) [H1, Fuc-α1,2-Gal-β1,3-GlcNAc] | lost their ability to interact | lost their ability to interact | lost their ability to interact | recognized | not | able to bind
CC(=O)NC1C(O)OC(CO)C(O)C1OC1OC(CO)C(O)C(O)C1O (stereo not drawn) [LNB, Gal-β1,3-GlcNAc] | lost their ability to interact | lost their ability to interact | lost their ability to interact | recognize | not | able to bind
